Data reported in US20250064941A1, “SIGLEC LIGANDS, CONJUGATES, AND METHODS OF USE THEREOF” (Osprey Biopharmaceuticals, Inc., priority 2023, published 2025).

Experiments:
cynomolgus Siglec-2/CD22 = cynomolgus Siglec-2/CD22 (Macaca fascicularis, UniProt A0A2K5WCZ6); assay: biochemical; assay type: binding; settings: SPR, steady-state analysis; read-out: Affinity cyno CD22
Method: Prior to immobilization, CD22 proteins were treated with SialoExo (Genovis, Cat #G1-SM1-020) for 4 hours at 37° C. to remove native sialic acid residues.
Surface preparation for cyno CD22 protein consisted of amine coupling to Cytiva CM5 chip (Cytiva, Cat #BR100530) using the Cytiva amine coupling kit Type 2 (Cytiva, Cat #BR100633). Following the standard amine coupling protocols, EDC and NHS from the kit were mixed 1:1 and injected over flow cells 1 and 2. […] Any active carboxy groups were then capped with 1M Ethanolamine, pH 8.5 for 420s on flow cells 1 and 2.
Binding experiments of Siglec-ligand conjugated proteins or Siglec ligand compounds were performed on the surfaces prepared above in 10 mM HEPES, 150 mM NaCl, 0.05% Tween-20, pH 7.5, 1% DMSO as the running buffer. […] The compounds were then allowed to dissociate from the surface for 120 seconds. […] Solvent correction was performed using 0.5, 1, 1.5, and 2% DMSO spike into running buffer without DMSO. […] Data was analyzed using steady-state analysis in Biacore Insight Evaluation Software, version 3.0 for Siglec ligand compounds.

[1] = biological target: T1, human Siglec-2/CD22 protein (Homo sapiens, UniProt P20273); assay: SPR binding affinity to human CD22; settings: steady-state analysis
T1 construct: purchased Acro Biosystems SI2-H82E3
T1 sequence (P20273 20-847): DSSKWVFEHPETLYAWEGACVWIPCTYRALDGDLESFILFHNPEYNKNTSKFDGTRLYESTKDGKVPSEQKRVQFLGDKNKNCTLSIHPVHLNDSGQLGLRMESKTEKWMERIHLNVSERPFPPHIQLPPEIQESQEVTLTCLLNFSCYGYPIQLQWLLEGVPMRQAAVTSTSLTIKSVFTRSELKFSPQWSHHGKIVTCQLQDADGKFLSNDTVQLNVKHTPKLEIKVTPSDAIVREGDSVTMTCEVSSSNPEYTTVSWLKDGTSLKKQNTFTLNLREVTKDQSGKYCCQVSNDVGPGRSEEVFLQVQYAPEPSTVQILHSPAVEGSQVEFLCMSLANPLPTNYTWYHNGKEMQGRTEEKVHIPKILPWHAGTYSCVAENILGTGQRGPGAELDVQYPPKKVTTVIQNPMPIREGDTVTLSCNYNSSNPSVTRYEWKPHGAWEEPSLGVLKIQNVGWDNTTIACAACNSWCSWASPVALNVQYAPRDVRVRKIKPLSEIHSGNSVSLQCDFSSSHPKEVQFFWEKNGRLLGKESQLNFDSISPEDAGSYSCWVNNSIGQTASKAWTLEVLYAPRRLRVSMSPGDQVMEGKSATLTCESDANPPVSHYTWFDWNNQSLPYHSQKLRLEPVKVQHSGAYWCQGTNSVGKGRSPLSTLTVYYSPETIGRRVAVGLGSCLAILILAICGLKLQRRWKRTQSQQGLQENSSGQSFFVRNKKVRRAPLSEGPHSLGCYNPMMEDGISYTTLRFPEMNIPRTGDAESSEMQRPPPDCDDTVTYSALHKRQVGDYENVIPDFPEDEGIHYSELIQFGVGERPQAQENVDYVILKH
Procedure, shortened: (§1)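 SialoExo pretreatment, 4 h 37° C.; biotinylated CD22 on SA chip, Biacore 8K. Buffer 10 mM HEPES, 150 mM NaCl, 0.05% Tween-20, pH 7.5, 1% DMSO. Dissociation 120 s; solvent-corrected; steady-state KD.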

[2] = biological target: T2, mouse Siglec-2-Fc-Avi (CD22) (Mus musculus, UniProt P35329); assay: SPR binding affinity to mouse CD22; settings: steady-state analysis
T2 construct: made in house
T2 sequence (P35329 22-708 limits assumed): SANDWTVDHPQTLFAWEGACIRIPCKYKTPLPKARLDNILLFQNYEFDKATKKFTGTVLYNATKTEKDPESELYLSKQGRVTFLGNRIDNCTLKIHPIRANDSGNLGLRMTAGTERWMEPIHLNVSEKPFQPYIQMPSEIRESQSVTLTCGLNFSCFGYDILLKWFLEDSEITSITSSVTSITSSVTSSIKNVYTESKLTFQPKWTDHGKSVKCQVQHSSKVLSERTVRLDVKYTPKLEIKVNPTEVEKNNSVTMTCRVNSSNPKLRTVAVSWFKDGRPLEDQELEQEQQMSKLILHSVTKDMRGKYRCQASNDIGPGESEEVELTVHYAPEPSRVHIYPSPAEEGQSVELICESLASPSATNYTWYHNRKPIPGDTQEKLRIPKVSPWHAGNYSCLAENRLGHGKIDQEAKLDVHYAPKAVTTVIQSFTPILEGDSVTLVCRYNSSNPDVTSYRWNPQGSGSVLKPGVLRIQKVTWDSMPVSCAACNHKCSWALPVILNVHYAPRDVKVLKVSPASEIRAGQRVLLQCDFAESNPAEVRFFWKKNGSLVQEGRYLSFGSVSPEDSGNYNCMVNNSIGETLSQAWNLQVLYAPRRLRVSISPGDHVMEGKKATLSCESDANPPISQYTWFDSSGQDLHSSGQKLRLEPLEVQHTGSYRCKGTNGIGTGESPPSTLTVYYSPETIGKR
Procedure, shortened: as §1

Chain of cynomolgus Siglec-2/CD22 (A0A2K5WCZ6 entry or part of it): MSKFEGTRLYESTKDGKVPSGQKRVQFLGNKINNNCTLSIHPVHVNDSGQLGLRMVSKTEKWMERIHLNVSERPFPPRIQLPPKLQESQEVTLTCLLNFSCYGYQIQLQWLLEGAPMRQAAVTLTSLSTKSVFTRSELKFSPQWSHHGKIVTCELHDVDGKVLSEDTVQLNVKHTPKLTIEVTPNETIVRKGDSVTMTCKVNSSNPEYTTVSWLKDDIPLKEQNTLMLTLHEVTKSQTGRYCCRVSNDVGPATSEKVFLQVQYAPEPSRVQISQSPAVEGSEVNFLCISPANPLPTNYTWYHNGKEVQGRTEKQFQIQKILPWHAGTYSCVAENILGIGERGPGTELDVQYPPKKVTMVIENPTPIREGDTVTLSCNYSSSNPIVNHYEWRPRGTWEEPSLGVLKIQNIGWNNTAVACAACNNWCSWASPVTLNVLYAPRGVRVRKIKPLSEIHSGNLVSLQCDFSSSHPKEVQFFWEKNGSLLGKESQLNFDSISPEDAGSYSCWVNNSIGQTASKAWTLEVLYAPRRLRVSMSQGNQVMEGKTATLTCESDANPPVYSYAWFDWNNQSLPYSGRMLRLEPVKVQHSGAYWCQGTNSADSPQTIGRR

Kd (cynomolgus Siglec-2/CD22) [µM] | Kd [1] [µM] | Kd [2] [µM] | SMILES
1 to 10 | 1 to 10 | > 10 | C#CCOCCOCCO[C@]1(C(=O)O)C[C@H](O)[C@@H](NC(=O)C(C)(C)O)[C@H]([C@H](O)[C@H](O)CNC(=O)Cc2ccc(-c3ccc(O)cc3)cc2)O1 [Compound 71, (2R,4S,5R,6R)-6-((1R,2R)-1,2-dihydroxy-3-(2-(4′-hydroxy-[1,1′-biphenyl]-4-yl)acetamido)propyl)-4-hydroxy-5-(2-hydroxy-2-methylpropanamido)-2-(2-(2-(prop-2-yn-1-yloxy)ethoxy)ethoxy)tetrahydro-2H-pyran-2-carboxylic acid]
< 1 | < 1 | < 1 | C#CCCOc1ccc(CO[C@]2(C(=O)O)C[C@H](O)[C@@H](NC(=O)CO)[C@H]([C@H](O)[C@H](O)CNC(=O)Cc3ccc(-c4ccccc4)cc3)O2)cc1 [Compound 37, (2R,4S,5R,6R)-6-((1R,2R)-3-(2-([1,1′-biphenyl]-4-yl)acetamido)-1,2-dihydroxypropyl)-2-((4-(but-3-yn-1-yloxy)benzyl)oxy)-4-hydroxy-5-(2-hydroxyacetamido)tetrahydro-2H-pyran-2-carboxylic acid]
< 1 | < 1 | < 1 | CC(=O)NCCOCCOCCOCCOCCn1cc(CCCCCCO[C@]2(C(=O)O)C[C@H](O)[C@@H](NC(=O)CO)[C@H]([C@H](O)[C@H](O)CNC(=O)Cc3ccc(C(F)F)cc3)O2)nn1 [Compound 253, (2R,4S,5R,6R)-6-((1R,2R)-3-(2-(4-(difluoromethyl)phenyl)acetamido)-1,2-dihydroxypropyl)-4-hydroxy-5-(2-hydroxyacetamido)-2-((6-(1-(2-oxo-6,9,12,15-tetraoxa-3-azaheptadecan-17-yl)-1H-1,2,3-triazol-4-yl)hexyl)oxy)tetrahydro-2H-pyran-2-carboxylic acid]
< 1 | < 1 | < 1 | C#CCOCCNC(=O)CCCCCCO[C@]1(C(=O)O)C[C@H](O)[C@@H](NC(=O)CO)[C@H]([C@H](O)[C@H](O)CNC(=O)Cc2ccc(Cl)c(F)c2)O1 [Cpd. 214, (2R,4S,5R,6R)-6-((1R,2R)-3-(2-(4-chloro-3-fluorophenyl)acetamido)-1,2-dihydroxypropyl)-4-hydroxy-5-(2-hydroxyacetamido)-2-((7-oxo-7-((2-(prop-2-yn-1-yloxy)ethyl)amino)heptyl)oxy)tetrahydro-2H-pyran-2-carboxylic acid]
< 1 | < 1 | 1 to 10 | C#CCOCCCCCCO[C@]1(C(=O)O)C[C@H](O)[C@@H](NC(=O)CO)[C@H]([C@H](O)[C@H](O)CNC(=O)Cc2ccc3cc[nH]c3c2)O1 [Compound 5, (2R,4S,5R,6R)-6-((1R,2R)-3-(2-(1H-indol-6-yl)acetamido)-1,2-dihydroxypropyl)-4-hydroxy-5-(2-hydroxyacetamido)-2-((6-(prop-2-yn-1-yloxy)hexyl)oxy)tetrahydro-2H-pyran-2-carboxylic acid]
1 to 10 | < 1 | 1 to 10 | C#CCOCCOCCO[C@]1(C(=O)O)C[C@H](O)[C@@H](NC(=O)CO)[C@H]([C@H](O)[C@H](O)CNC(=O)Cc2ccc(-c3ccccc3O)cc2)O1 [Compound 68, (2R,4S,5R,6R)-6-((1R,2R)-1,2-dihydroxy-3-(2-(2′-hydroxy-[1,1′-biphenyl]-4-yl)acetamido)propyl)-4-hydroxy-5-(2-hydroxyacetamido)-2-(2-(2-(prop-2-yn-1-yloxy)ethoxy)ethoxy)tetrahydro-2H-pyran-2-carboxylic acid]
1 to 10 | 1 to 10 | > 10 | C#CCOCCOCCO[C@]1(C(=O)O)C[C@H](O)[C@@H](NC(=O)CO)[C@H]([C@H](O)[C@H](O)CNC(=O)c2ccc(Cl)cc2)O1 [Compound 30, (2R,4S,5R,6R)-6-((1R,2R)-3-(4-chlorobenzamido)-1,2-dihydroxypropyl)-4-hydroxy-5-(2-hydroxyacetamido)-2-(2-(2-(prop-2-yn-1-yloxy)ethoxy)ethoxy)tetrahydro-2H-pyran-2-carboxylic acid]
< 1 | < 1 | < 1 | C#CCOCCNC(=O)NCCCCCCO[C@]1(C(=O)O)C[C@H](O)[C@@H](NC(=O)CO)[C@H]([C@H](O)[C@H](O)CNC(=O)Cc2ccc(Cl)cc2)O1 [Compound 218, (2R,4S,5R,6R)-6-((1R,2R)-3-(2-(4-chlorophenyl)acetamido)-1,2-dihydroxypropyl)-4-hydroxy-5-(2-hydroxyacetamido)-2-((6-(3-(2-(prop-2-yn-1-yloxy)ethyl)ureido)hexyl)oxy)tetrahydro-2H-pyran-2-carboxylic acid]
< 1 | < 1 | 1 to 10 | C#CCOCCCCCCO[C@]1(C(=O)O)C[C@H](O)[C@@H](Nc2c(N)c(=O)c2=O)[C@H]([C@H](O)[C@H](O)CNC(=O)Cc2ccc(Cl)cc2)O1 [Compound 190, (2R,4S,5R,6R)-5-((2-amino-3,4-dioxocyclobut-1-en-1-yl)amino)-6-((1R,2R)-3-(2-(4-chlorophenyl)acetamido)-1,2-dihydroxypropyl)-4-hydroxy-2-((6-(prop-2-yn-1-yloxy)hexyl)oxy)tetrahydro-2H-pyran-2-carboxylic acid]
1 to 10 | 1 to 10 | > 10 | CC(=O)NCCOCCOCCOCCOCCC(=O)NCCCCCCO[C@]1(C(=O)O)C[C@H](O)[C@@H](NC(C)=O)[C@H]([C@H](O)[C@H](O)CNC(=O)c2cccc(Cl)c2)O1 [Compound 271, (2R,4S,5R,6R)-5-acetamido-6-((1R,2R)-3-(3-chlorobenzamido)-1,2-dihydroxypropyl)-2-((2,18-dioxo-6,9,12,15-tetraoxa-3,19-diazapentacosan-25-yl)oxy)-4-hydroxytetrahydro-2H-pyran-2-carboxylic acid]
< 1 | < 1 | < 1 | C#CCCCCNC(=O)CCCCCCO[C@]1(C(=O)O)C[C@H](O)[C@@H](NC(=O)CO)[C@H]([C@H](O)[C@H](O)CNC(=O)Cc2ccc(Cl)cc2)O1 [Compound 96, (2R,4S,5R,6R)-6-((1R,2R)-3-(2-(4-chlorophenyl)acetamido)-1,2-dihydroxypropyl)-2-((7-(hex-5-yn-1-ylamino)-7-oxoheptyl)oxy)-4-hydroxy-5-(2-hydroxyacetamido)tetrahydro-2H-pyran-2-carboxylic acid]
< 1 | < 1 | 1 to 10 | O=C(O)CCCCCCO[C@]1(C(=O)O)C[C@H](O)[C@@H](NC(=O)CO)[C@H]([C@H](O)[C@H](O)CNC(=O)Cc2ccc(Cl)cc2)O1 [Compound 98, (2R,4S,5R,6R)-2-((6-carboxyhexyl)oxy)-6-((1R,2R)-3-(2-(4-chlorophenyl)acetamido)-1,2-dihydroxypropyl)-4-hydroxy-5-(2-hydroxyacetamido)tetrahydro-2H-pyran-2-carboxylic acid]
